Laboratory results reported in patent US8846947B2, “Benzimidazoles and related analogs as sirtuin modulators” (GlaxoSmithKline LLC, priority 2008, dated 2014).
Read-outs that look alike come from different tables or passages of the source.

Target: T1, SIRT1 (Homo sapiens, UniProt Q96EB6)
T1 sequence (Q96EB6 1-747): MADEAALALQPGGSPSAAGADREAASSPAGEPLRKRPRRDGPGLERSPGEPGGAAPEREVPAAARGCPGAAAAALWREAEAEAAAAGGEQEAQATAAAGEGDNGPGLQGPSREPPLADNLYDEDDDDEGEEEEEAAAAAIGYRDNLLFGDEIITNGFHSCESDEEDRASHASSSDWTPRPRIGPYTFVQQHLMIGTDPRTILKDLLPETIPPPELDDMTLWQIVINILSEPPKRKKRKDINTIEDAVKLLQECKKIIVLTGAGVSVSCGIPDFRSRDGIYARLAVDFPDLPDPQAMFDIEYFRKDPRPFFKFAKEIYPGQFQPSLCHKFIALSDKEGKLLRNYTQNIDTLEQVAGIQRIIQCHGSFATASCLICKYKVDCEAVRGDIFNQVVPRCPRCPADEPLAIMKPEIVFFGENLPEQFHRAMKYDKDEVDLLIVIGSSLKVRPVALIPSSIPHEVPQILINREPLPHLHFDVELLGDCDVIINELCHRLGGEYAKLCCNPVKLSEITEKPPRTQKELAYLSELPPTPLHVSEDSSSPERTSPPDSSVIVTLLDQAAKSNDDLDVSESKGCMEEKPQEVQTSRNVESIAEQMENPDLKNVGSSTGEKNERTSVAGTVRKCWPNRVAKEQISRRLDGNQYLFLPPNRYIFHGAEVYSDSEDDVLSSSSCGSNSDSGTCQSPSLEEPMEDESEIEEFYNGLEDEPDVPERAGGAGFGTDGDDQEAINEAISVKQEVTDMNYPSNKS
Assay: Mass spectrometry based SIRT1 deacetylase activation assay (acetylated p53-derived peptide substrate)
Format: biochemical

[1] = 0.5 μM peptide substrate, 120 μM βNAD+, 10 nM SIRT1, 25 minutes at 25° C.
[2] = 0.5 μM peptide substrate, 120 μM βNAD+, 10 nM SIRT1, 25 min at 25° C.
[3] = 0.5 μM peptide substrate, 120 μM βNAD+, 10 nM SIRT1, 25 min at 25° C., read-out: EC1.5

O=C(Nc1nccs1)c1cccc2[nH]c(-c3cc(CN4CCCC4)ccc3C(F)(F)F)nc12 [Compound 871, 2-(5-(pyrrolidin-1-ylmethyl)-2-(trifluoromethyl)phenyl)-N-(thiazol-2-yl)-1H-benzo[d]imidazole-4-carboxamide]
EC1.5 [1]: B (EC1.5 1-25 uM) | Fold Act. (percent maximum fold activation) [1]: A (Fold activation >200%)

Cc1cnc(NC(=O)c2cccc3[nH]c(-c4ccc(N5CC[C@H](F)C5)cc4C(F)F)nc23)s1 [Compound 732]
EC1.5 [1]: A (EC1.5<1.0 uM) | Fold Act. (percent maximum fold activation) [1]: A (Fold activation >200%)

O=C(Nc1nccs1)c1cncc2[nH]c(-c3ccc(OC[C@@H](O)CO)cc3C(F)(F)F)nc12 [Compound 758]
EC1.5 [1]: A (EC1.5<1.0 uM) | Fold Act. (percent maximum fold activation) [1]: A (Fold activation >200%)

O=C(Nc1ccc(Cl)nc1)c1cccc2[nH]c(-c3cccc(C(F)(F)F)c3)nc12 [Compound 307]
EC1.5: B (EC1.5 1-25 uM) | Fold Act. (percent maximum fold activation): B (Fold Activation <200%)

O=C(Nc1nccs1)c1cccc2[nH]c(-c3cn4ccsc4n3)nc12 [Compound 400]
Fold Act. (percent maximum fold activation) [2]: A (Fold activation >200%) | EC1.5 [3]: < 1000 nM

O=C(Nc1nccs1)c1cc(F)cc2nc(-c3cc(F)ccc3C(F)F)[nH]c12 [Compound 835]
EC1.5 [1]: A (EC1.5<1.0 uM) | Fold Act. (percent maximum fold activation) [1]: A (Fold activation >200%)

O=C(Nc1nccs1)c1cccc2[nH]c(-c3cc(F)ccc3C(F)F)nc12 [Compound 511]
Fold Act. (percent maximum fold activation) [2]: A (Fold activation >200%) | EC1.5 [3]: 1000 to 25000 nM

Cc1nn(-c2ccccc2)c(C)c1-c1nc2c(C(=O)Nc3nccs3)cccc2[nH]1 [Compound 291]
EC1.5: A (EC1.5<1.0 uM) | Fold Act. (percent maximum fold activation): A (Fold activation >200%)

Cc1nc(-c2nc3c(C(=O)Nc4nccs4)cccc3[nH]2)c(C)o1 [Compound 244]
EC1.5: B (EC1.5 1-25 uM) | Fold Act. (percent maximum fold activation): A (Fold activation >200%)

C[C@@H]1CN(CCOc2ccccc2-c2nc3c(C(=O)Nc4nccs4)cccc3[nH]2)C[C@H](C)O1 [Compound 578]
Fold Act. (percent maximum fold activation) [2]: B (Fold Activation <200%) | EC1.5 [3]: 1000 to 25000 nM

O=C(Nc1cccc(CN2CCOCC2)n1)c1cccc2[nH]c(-c3ccccc3F)nc12 [Compound 854]
EC1.5 [1]: A (EC1.5<1.0 uM) | Fold Act. (percent maximum fold activation) [1]: A (Fold activation >200%)

O=C(Nc1ccc(OC[C@H](O)CO)cc1)c1cccc2[nH]c(-c3cccnc3)nc12 [Compound 797]
EC1.5 [1]: A (EC1.5<1.0 uM) | Fold Act. (percent maximum fold activation) [1]: A (Fold activation >200%)

O=C(Nc1cccc(CN2CCOCC2)n1)c1cccc2[nH]c(-c3ccccc3C(F)(F)F)nc12 [Compound 672]
EC1.5 [1]: A (EC1.5<1.0 uM) | Fold Act. (percent maximum fold activation) [1]: A (Fold activation >200%)

O=C(Nc1ccc(CN2CCCC2)nc1)c1cccc2[nH]c(-c3ccccc3C(F)(F)F)nc12 [Compound 683]
EC1.5 [1]: A (EC1.5<1.0 uM) | Fold Act. (percent maximum fold activation) [1]: A (Fold activation >200%)

CS(=O)(=O)c1ccc(-c2nc3c(C(=O)Nc4cccnc4)cccc3[nH]2)cc1 [Compound 407]
Fold Act. (percent maximum fold activation) [2]: B (Fold Activation <200%) | EC1.5 [3]: > 25000 nM

Cc1nc(-c2ccccc2)sc1-c1nc2c(C(=O)Nc3ccccn3)cccc2[nH]1 [Compound 409]
Fold Act. (percent maximum fold activation) [2]: A (Fold activation >200%) | EC1.5 [3]: < 1000 nM

CC1(C)Cc2cc(-c3nc4c(C(=O)Nc5cccnc5)cccc4[nH]3)ccc2O1 [Compound 499]
Fold Act. (percent maximum fold activation) [2]: A (Fold activation >200%) | EC1.5 [3]: 1000 to 25000 nM

O=C(Nc1ccccn1)c1cc(F)cc2nc(-c3ccc(F)cc3C(F)F)[nH]c12 [Compound 826]
EC1.5 [1]: A (EC1.5<1.0 uM) | Fold Act. (percent maximum fold activation) [1]: A (Fold activation >200%)

O=C(Nc1nccs1)c1cccc2[nH]c(-c3cccc(CN4CCCC4)c3)nc12 [Compound 351]
EC1.5: B (EC1.5 1-25 uM) | Fold Act. (percent maximum fold activation): A (Fold activation >200%)

Cc1cnc(NC(=O)c2cc(N3CCCC3)cc3[nH]c(-c4ccccc4C(F)F)nc23)s1 [Compound 790]
EC1.5 [1]: A (EC1.5<1.0 uM) | Fold Act. (percent maximum fold activation) [1]: A (Fold activation >200%)

O=C(Nc1nccs1)c1cccc2[nH]c(-c3cccc(OCC(O)CO)c3)nc12 (stereo not shown) [Compound 324, 2-(3-(2,3-dihydroxypropoxy)phenyl)-N-(thiazol-2-yl)-1H-benzo[d]imidazole-4-carboxamide]
EC1.5: A (EC1.5<1.0 uM) | Fold Act. (percent maximum fold activation): A (Fold activation >200%)

Cc1cc(NC(=O)c2cccc3[nH]c(-c4cccc(N5CCOCC5)c4)nc23)no1 [Compound 469]
Fold Act. (percent maximum fold activation) [2]: A (Fold activation >200%) | EC1.5 [3]: 1000 to 25000 nM

O=C(Nc1cccnn1)c1cccc2[nH]c(-c3cc(F)ccc3C(F)(F)F)nc12 [Compound 456]
Fold Act. (percent maximum fold activation) [2]: A (Fold activation >200%) | EC1.5 [3]: < 1000 nM

O=C(Nc1cccnc1)c1cc(N2CCOCC2)cc2[nH]c(-c3ccccc3C(F)F)nc12 [Compound 735]
EC1.5 [1]: A (EC1.5<1.0 uM) | Fold Act. (percent maximum fold activation) [1]: A (Fold activation >200%)

COCCN1CCN(c2cccc(-c3nc4c(C(=O)Nc5nccs5)cccc4[nH]3)c2)CC1 [Compound 710]
EC1.5 [1]: A (EC1.5<1.0 uM) | Fold Act. (percent maximum fold activation) [1]: A (Fold activation >200%)

O=C(Nc1ccccc1OCC(O)CO)c1cccc2[nH]c(-c3ccccc3C(F)(F)F)nc12 (stereo not shown) [Compound 729]
EC1.5 [1]: B (EC1.5 1-25 uM) | Fold Act. (percent maximum fold activation) [1]: A (Fold activation >200%)

O=C(Nc1nc(CN2CCOCC2)cs1)c1cccc2[nH]c(-c3ccc(F)cc3C(F)(F)F)nc12 [Compound 681, 2-(4-fluoro-2-(trifluoromethyl)phenyl)-N-(4-(morpholinomethyl)thiazol-2-yl)-1H-benzo[d]imidazole-4-carboxamide]
EC1.5 [1]: A (EC1.5<1.0 uM) | Fold Act. (percent maximum fold activation) [1]: A (Fold activation >200%)

O=C(Nc1cccnc1)c1cc(N2CCOCC2)cc2[nH]c(-c3ccc(Cl)cc3C(F)(F)F)nc12 [Compound 642]
EC1.5 [1]: A (EC1.5<1.0 uM) | Fold Act. (percent maximum fold activation) [1]: A (Fold activation >200%)

O=C(Nc1cccc2[nH]c(-c3cc(F)ccc3C(F)(F)F)nc12)c1ccccn1 [Compound 385]
EC1.5: B (EC1.5 1-25 uM) | Fold Act. (percent maximum fold activation): A (Fold activation >200%)

O=C(Nc1cccnn1)c1cccc2[nH]c(-c3ccccc3C(F)(F)F)nc12 [Compound 451]
Fold Act. (percent maximum fold activation) [2]: A (Fold activation >200%) | EC1.5 [3]: < 1000 nM

O=C(Nc1cccnn1)c1cccc2[nH]c(-c3cccc(C(F)(F)F)c3)nc12 [Compound 300]
EC1.5: A (EC1.5<1.0 uM) | Fold Act. (percent maximum fold activation): A (Fold activation >200%)

O=C1COc2ccc(-c3nc4c(C(=O)Nc5nccs5)cccc4[nH]3)cc2N1 [Compound 424]
Fold Act. (percent maximum fold activation) [2]: B (Fold Activation <200%) | EC1.5 [3]: < 1000 nM

O=C(Nc1cccc(OC[C@H](O)CO)c1)c1cccc2[nH]c(-c3ccc(Cl)cc3C(F)F)nc12 [Compound 698]
EC1.5 [1]: A (EC1.5<1.0 uM) | Fold Act. (percent maximum fold activation) [1]: A (Fold activation >200%)

O=C(Nc1cccnc1)c1cccc2[nH]c(-c3ccc(OC4CCNCC4)cc3)nc12 [Compound 536]
Fold Act. (percent maximum fold activation) [2]: A (Fold activation >200%) | EC1.5 [3]: 1000 to 25000 nM

CS(=O)(=O)c1cc(Cl)ccc1-c1nc2c(C(=O)Nc3ccccn3)cccc2[nH]1 [Compound 522]
Fold Act. (percent maximum fold activation) [2]: A (Fold activation >200%) | EC1.5 [3]: < 1000 nM

O=C(Nc1cccnc1)c1cccc2[nH]c(-c3cccc(OC4CCNCC4)c3)nc12 [Compound 567]
Fold Act. (percent maximum fold activation) [2]: A (Fold activation >200%) | EC1.5 [3]: < 1000 nM

O=C(Nc1cccnc1)c1cccc2[nH]c(-c3cccc(CN4CCCC4)c3)nc12 [Compound 352]
EC1.5: B (EC1.5 1-25 uM) | Fold Act. (percent maximum fold activation): A (Fold activation >200%)

COc1cc(C(=O)Nc2nccs2)c2nc(-c3ccc(Cl)cc3C(F)(F)F)[nH]c2c1 [Compound 635]
EC1.5 [1]: A (EC1.5<1.0 uM) | Fold Act. (percent maximum fold activation) [1]: A (Fold activation >200%)

O=C(Nc1ccc(CN2CCOCC2)nc1)c1cccc2[nH]c(-c3cc(F)ccc3C(F)(F)F)nc12 [Compound 686, 2-(5-fluoro-2-(trifluoromethyl)phenyl)-N-(6-(morpholinomethyl)pyridin-3-yl)-1H-benzo[d]imidazole-4-carboxamide]
EC1.5 [1]: A (EC1.5<1.0 uM) | Fold Act. (percent maximum fold activation) [1]: A (Fold activation >200%)

O=C(Nc1ccc(CN2CCOCC2)cn1)c1cccc2[nH]c(-c3ccc(Cl)cc3C(F)(F)F)nc12 [Compound 676]
EC1.5 [1]: A (EC1.5<1.0 uM) | Fold Act. (percent maximum fold activation) [1]: A (Fold activation >200%)

O=C1COc2ccc(-c3nc4c(C(=O)Nc5cccnc5)cccc4[nH]3)cc2N1 [Compound 533]
Fold Act. (percent maximum fold activation) [2]: B (Fold Activation <200%) | EC1.5 [3]: > 25000 nM
